Assay results from paper PMC9386001, “Identification of naturally occurring inhibitors in Xian-Ling-Gu-Bao capsule against the glucuronidation of estrogens” (Frontiers in Pharmacology, 2022).

Assays:
[1] = molecular target: T1, UGT1A1 (Homo sapiens, UniProt P22309); assay: Estrogen glucuronidation kinetics by expressed UGT1A1; conditions: 3-O-glucuronide formation
T1 sequence (P22309 26-533): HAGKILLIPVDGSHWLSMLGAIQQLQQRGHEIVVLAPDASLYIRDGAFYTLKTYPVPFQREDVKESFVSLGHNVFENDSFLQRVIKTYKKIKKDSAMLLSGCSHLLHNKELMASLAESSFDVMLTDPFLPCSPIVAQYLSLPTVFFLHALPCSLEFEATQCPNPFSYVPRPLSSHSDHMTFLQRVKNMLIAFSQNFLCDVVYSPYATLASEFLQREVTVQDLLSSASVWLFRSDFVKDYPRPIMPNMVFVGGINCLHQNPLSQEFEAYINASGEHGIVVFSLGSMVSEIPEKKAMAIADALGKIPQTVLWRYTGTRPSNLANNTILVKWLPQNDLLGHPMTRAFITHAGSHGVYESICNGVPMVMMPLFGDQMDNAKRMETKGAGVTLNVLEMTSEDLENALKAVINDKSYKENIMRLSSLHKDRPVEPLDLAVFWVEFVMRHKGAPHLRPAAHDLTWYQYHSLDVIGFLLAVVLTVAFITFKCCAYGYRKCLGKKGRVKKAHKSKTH
Method: (§1) In brief, incubation mixtures (100 μL) contained Tris-HCl buffer solution (50 mM, pH = 7.4), microsomes (HLM, HIM, 0.5 mg/ml) or UGT enzymes (1 mg/ml), MgCl2 (0.88 mM), alamethicin (22 μg/ml), and D-saccharic-1,4-lactone (4.4 mM) and respective substrate. The volume of organic solvent in incubation mixtures was kept below 1%. After pre-incubation at 37°C for 5 min, the reaction was commenced with the addition of UDPGA (4 mM) and subsequently incubated at 37°C for a period. The reaction was terminated by adding 100 μL of cold acetonitrile. Then, the incubation mixtures were vortexed and centrifuged at 13,800 g for 10 min to collect the supernatant for analysis.
(§2) All experiments were performed in triplicate.
(§3) Glucuronidation rates were expressed as the amounts of formed metabolites per minute per milligram protein (pmol/min/mg protein) based on Eq. 1. Furthermore, kinetic characteristics were evaluated from the suitable curves based on the profile of the Eadie–Hofstee plot, and corresponding kinetic parameters were estimated using Eqs 2–4. Appropriated model fitting was performed by GraphPad Prism V5 software (San Diego, CA).
(§4) The intrinsic clearance (CL int ) was derived from V max /K m for Michaelis–Menten and substrate inhibition models, and the maximal clearance (CL max ) was obtained using Eq. 5 for Hill kinetics. Vg=Cs∗V/Cprotein∗T∗Vprotein. […]

[2] = molecular target: T2, UGT1A10 (Homo sapiens, UniProt Q9HAW8); assay: Glucuronidation kinetics by expressed UGT1A10
T2 sequence (Q9HAW8 26-530): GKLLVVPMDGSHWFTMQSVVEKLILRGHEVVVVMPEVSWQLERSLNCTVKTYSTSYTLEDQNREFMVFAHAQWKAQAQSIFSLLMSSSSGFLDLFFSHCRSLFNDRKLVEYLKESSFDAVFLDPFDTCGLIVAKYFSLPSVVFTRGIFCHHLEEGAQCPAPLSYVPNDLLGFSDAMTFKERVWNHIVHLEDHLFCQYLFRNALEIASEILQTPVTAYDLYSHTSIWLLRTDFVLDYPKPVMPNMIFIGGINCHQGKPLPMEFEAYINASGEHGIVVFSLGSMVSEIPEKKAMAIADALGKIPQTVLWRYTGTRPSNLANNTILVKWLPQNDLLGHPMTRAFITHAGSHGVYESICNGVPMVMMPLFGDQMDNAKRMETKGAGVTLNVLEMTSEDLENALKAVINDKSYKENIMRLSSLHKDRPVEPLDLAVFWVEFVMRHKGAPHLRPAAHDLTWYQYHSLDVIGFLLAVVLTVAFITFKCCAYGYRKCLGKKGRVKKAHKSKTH
Method: as §1, with “The glucuronidation assay was conducted as described previously ([Qin et al., 2018]; [Xu et al., 2018]). In” for “In”
as §2, §3
(§5) The intrinsic clearance (CL int ) was derived from V max /K m for Michaelis–Menten and substrate inhibition models, and the maximal clearance (CL max ) was obtained using Eq. 5 for Hill kinetics. Vg=Cs∗V/Cprotein∗T∗Vprotein. (1) V=Vmax×[S]/Km+[S], (2) V=Vmax×[S]/Km+[S](1+[S]/Ksi), (3) V=Vmax×[S]^n/S50n[…], (4) CLmax=Vmax/S50×n−1/n(n−1)^1/n. (5)

[3] = molecular target: T3, UGT1A3 (Homo sapiens, UniProt P35503); assay: Estrogen glucuronidation kinetics by expressed UGT1A3; type: in vitro ADME
T3 construct: purchased Corning Biosciences
T3 sequence (P35503 29-534): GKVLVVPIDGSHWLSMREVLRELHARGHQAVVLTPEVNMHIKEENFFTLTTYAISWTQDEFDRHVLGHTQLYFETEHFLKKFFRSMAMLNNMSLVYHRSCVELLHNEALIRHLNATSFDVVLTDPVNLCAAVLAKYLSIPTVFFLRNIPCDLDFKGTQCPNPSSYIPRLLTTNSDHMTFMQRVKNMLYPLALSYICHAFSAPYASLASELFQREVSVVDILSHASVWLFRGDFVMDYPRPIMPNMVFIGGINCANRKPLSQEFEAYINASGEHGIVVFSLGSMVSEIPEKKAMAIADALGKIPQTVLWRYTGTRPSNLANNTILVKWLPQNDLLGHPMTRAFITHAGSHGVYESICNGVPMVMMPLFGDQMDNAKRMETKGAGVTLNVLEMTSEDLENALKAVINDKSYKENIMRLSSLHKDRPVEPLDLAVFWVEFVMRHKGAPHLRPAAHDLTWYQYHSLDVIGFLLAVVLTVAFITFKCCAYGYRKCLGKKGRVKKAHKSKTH
Method: as §1, §2, §3, §4

[4] = tested on: human liver microsomes (HLM); assay: Estrogen glucuronidation kinetics by HLM; type: in vitro ADME; conditions: HLM
Method: as §1, §2, §3, §5

[5] = Estrogen glucuronidation kinetics by HIM; type: in vitro ADME, human; conditions: human, human intestine microsomes, pH 7.4, HIM, read-out: CL int or CL max
Method: as §2
(§6) Vg=Cs∗V/Cprotein∗T∗Vprotein. […] (5)

[6] = tested on: human intestine microsomes (HIM); assay: Estrogen glucuronidation kinetics by HIM; type: in vitro ADME; conditions: HIM
Method: as §2, §6

[7] = molecular target: T2, UGT1A10; set-up: purchased Corning Biosciences; conditions: substrate of UGT1A10; ref Xin et al., 2016; Gao et al., 2020; cited from earlier work
[8] = Estrogen glucuronidation kinetics by HLM; type: in vitro ADME, human; conditions: human, human liver microsomes, pH 7.4, HLM, read-out: CL int or CL max
Method: as §1, §2, §3, §5

[9] = molecular target: T4, UGT2B7 (Homo sapiens, UniProt P16662); assay: Estrogen glucuronidation kinetics by expressed UGT2B7; conditions: recombinant (expressed) UGT2B7, pH 7.4
T4 sequence (P16662 24-529): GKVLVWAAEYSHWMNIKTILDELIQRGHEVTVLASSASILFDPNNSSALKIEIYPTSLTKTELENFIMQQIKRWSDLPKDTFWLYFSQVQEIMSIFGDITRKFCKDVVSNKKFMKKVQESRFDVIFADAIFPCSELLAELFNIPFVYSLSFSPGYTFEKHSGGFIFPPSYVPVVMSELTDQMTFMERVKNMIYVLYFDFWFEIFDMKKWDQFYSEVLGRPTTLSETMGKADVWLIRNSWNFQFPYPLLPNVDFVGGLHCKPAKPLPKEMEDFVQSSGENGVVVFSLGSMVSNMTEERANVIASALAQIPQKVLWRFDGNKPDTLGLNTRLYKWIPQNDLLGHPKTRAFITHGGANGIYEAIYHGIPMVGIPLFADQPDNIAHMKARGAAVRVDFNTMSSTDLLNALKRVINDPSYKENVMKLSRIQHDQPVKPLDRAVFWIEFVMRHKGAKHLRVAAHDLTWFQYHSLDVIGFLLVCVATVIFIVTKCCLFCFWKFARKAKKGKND

[10] = substrate: C[C@]12CC[C@@H]3c4ccc(O)cc4CC[C@H]3[C@@H]1CCC2=O; assay: Estrogen glucuronidation kinetics by expressed UGT1A3; type: in vitro ADME, human; conditions: other: UGT1A3; 3-O-glucuronide formation; pH 7.4; 37.0 °C
[11] = 3-O-glucuronide formation, Hill coefficient

## C[C@]12CC[C@@H]3c4ccc(O)cc4CC[C@H]3[C@@H]1CC[C@@H]2O [E2, β-estradiol]
[1]
  K m or S50: 11.08 ± 0.48 µM
  V max: 754.9 ± 15.14 pmol/min/mg
[2]; 3-O-glucuronide formation
  K m or S50: 113.2 ± 46.66 µM
[2]; 3-O-glucuronide formation, substrate inhibition constant
  Ki: 71.98 ± 35.77 µM
[2]; 17-O-glucuronide formation
  K m or S50: 16.39 ± 3.53 µM

## C[C@]12CC[C@@H]3c4ccc(O)cc4CC[C@H]3[C@@H]1CCC2=O [E1, Estrone]
[3]; [11]
  h: 2.09 ± 0.16
[3]; human, recombinant (expressed) UGT1A3, pH 7.4, 3-O-glucuronide formation, read-out: CL int or CL max
  microsomal CLint: 11.7 ± 0.95 µL/min/mg
[4]; 3-O-glucuronide formation
  K m or S50: 6.87 ± 0.59 µM
[5]; 3-O-glucuronide formation
  microsomal CLint: 25.25 ± 0.24 µL/min/mg
[6]; 3-O-glucuronide formation
  K m or S50: 8.82 ± 0.37 µM
[6]; [11]
  h: 1.63 ± 0.09

## Cc1cc(=O)oc2cc(O)ccc12 [4-MU, 4-methylumbelliferone]
[7]
  Km: ~60 µM

## C[C@]12CC[C@@H]3c4ccc(O)cc4CC[C@H]3[C@@H]1C[C@@H](O)[C@@H]2O [E3, estriol]
[8]; 3-O-glucuronide formation
  microsomal CLint: 1.58 ± 0.16 µL/min/mg
[8]; 16-O-glucuronide formation
  microsomal CLint: 542.32 ± 0.05 µL/min/mg
[4]; 3-O-glucuronide formation
  K m or S50: 86.1 ± 12.39 µM
[4]; 16-O-glucuronide formation
  K m or S50: 11.91 ± 0.60 µM
[5]; 3-O-glucuronide formation
  microsomal CLint: 10.74 ± 0.1 µL/min/mg
[5]; 16-O-glucuronide formation
  microsomal CLint: 109.4 ± 0.04 µL/min/mg
[6]; 3-O-glucuronide formation
  K m or S50: 50.18 ± 4.40 µM
[6]; 16-O-glucuronide formation
  K m or S50: 11.59 ± 0.49 µM
[9]
  microsomal CLint: 793.8 ± 0.07 µL/min/mg

B1: UGT1A3 (Homo sapiens) (protein)
chain: GKVLVVPIDGSHWLSMREVLRELHARGHQAVVLTPEVNMHIKEENFFTLTTYAISWTQDEFDRHVLGHTQLYFETEHFLKKFFRSMAMLNNMSLVYHRSCVELLHNEALIRHLNATSFDVVLTDPVNLCAAVLAKYLSIPTVFFLRNIPCDLDFKGTQCPNPSSYIPRLLTTNSDHMTFMQRVKNMLYPLALSYICHAFSAPYASLASELFQREVSVVDILSHASVWLFRGDFVMDYPRPIMPNMVFIGGINCANRKPLSQEFEAYINASGEHGIVVFSLGSMVSEIPEKKAMAIADALGKIPQTVLWRYTGTRPSNLANNTILVKWLPQNDLLGHPMTRAFITHAGSHGVYESICNGVPMVMMPLFGDQMDNAKRMETKGAGVTLNVLEMTSEDLENALKAVINDKSYKENIMRLSSLHKDRPVEPLDLAVFWVEFVMRHKGAPHLRPAAHDLTWYQYHSLDVIGFLLAVVLTVAFITFKCCAYGYRKCLGKKGRVKKAHKSKTH
notes: purchased Corning Biosciences
[10]
  K0.5: 9.23 ± 0.39 µM
